Consider 70 compounds from ChEMBL document CHEMBL1145893, “Three-dimensional quantitative structure-activity relationship analysis of propafenone-type multidrug resistance modulators: influence of variable selection on test set predictivity” (J Med Chem, 2003).

The assay concerns CCRF-CEM/VCR-1000. Nature of the assay: In vitro multi drug resistance (MDR) reversal inhibitory activity against CCRF-CEM/VCR-1000 cell line. As to conditions: Homo sapiens. Format: functional, cell-based.

As a reminder, the IC50 is the midpoint of a concentration-inhibition curve. For `CCCNCC(O)c1oc2ccccc2c1CC` (stereo not given), the IC50 came out at 439000 nM.

For `CCCNCCc1oc2ccccc2c1CCc1ccccc1`, the IC50 came to 8560 nM.

For `CN(C)CC(O)COc1ccccc1C(=O)CCc1ccccc1` (stereo not given), the IC50 amounted to 2640 nM.

As to `CC(=O)c1ccccc1OCC(O)CN1CCN(c2ccc(F)cc2)CC1` (stereo not given), the half-maximal inhibitory concentration (IC50) stood at 3840 nM.

On to `CCC(=O)c1ccccc1OCC(O)CN1CCOCC1` (stereo not given), for which the half-maximal inhibitory concentration (IC50) was determined as 207000 nM.

With `COc1ccccc1N1CCN(CC(=O)c2oc3ccccc3c2CCc2ccccc2)CC1`, the half-inhibitory concentration (IC50) was found to be 16600 nM.

Turning to `O=C(CCc1ccccc1)c1cc(OCc2ccccc2)ccc1OCC(O)CN1CCN(Cc2ccccc2)CC1` (stereo not given), the half-maximal inhibitory concentration (IC50) was determined as 120 nM.

In the case of `CC(C)NCCc1oc2ccccc2c1CCc1ccccc1`, the 50% inhibitory concentration (IC50) was 20200 nM.

`O=C(CCc1ccccc1)c1ccccc1OCC(O)CNCc1ccccc1` (stereo not given): the IC50 was found to be 760 nM.

As for `O=C(CCc1ccccc1)c1ccccc1OCC(O)CNCC(c1ccccc1)c1ccccc1` (stereo not given), the IC50 stood at 90 nM.

`O=C(CCc1ccccc1)c1ccc(OCC(O)CN2CCOCC2)cc1` (stereo not given): the IC50 is 6860 nM.

Consider `O=C(CCc1ccccc1)c1ccccc1OCC(O)CNC1CCCCC1` (stereo not given), for which the IC50 amounted to 340 nM.

In the case of `O=C(CCc1ccccc1)c1cccc(OCC(O)CN2CCN(c3ccc(F)cc3)CC2)c1` (stereo not given), the half-maximal inhibitory concentration (IC50) was 1120 nM.

With `O=C(CCc1ccccc1)c1cccc(OCC(O)CN2CCCCC2)c1` (stereo not given), the half-maximal inhibitory concentration (IC50) amounted to 390 nM.

With `COC(CCc1ccccc1)c1ccccc1OCC(O)CN(C(C)C)C(C)C` (stereo not given), the 50% inhibitory concentration (IC50) stood at 660 nM.

Regarding `COC(CCc1ccccc1)c1ccccc1OCC(O)CN1CCN(c2ccc(F)cc2)CC1` (stereo not given), the IC50 was found to be 230 nM.

As for `COC(CCc1ccccc1)c1ccccc1OCC(O)CN1CCCCC1` (stereo not given), the 50% inhibitory concentration (IC50) was found to be 770 nM.

On to `CC(=O)c1ccc(OCC(O)CN2CCN(c3ccc(F)cc3)CC2)cc1` (stereo not given), for which the half-maximal inhibitory concentration (IC50) was 11900 nM.

`COc1cccc(N2CCN(CC(O)COc3ccccc3C(=O)CCc3ccccc3)CC2)c1` (stereo not given): the concentration for half-maximal inhibition (IC50) was 120 nM.

For the compound `CC(=O)c1ccc(OCC(O)CN2CCOCC2)cc1` (stereo not given), the IC50 turned out to be 302000 nM.

Turning to `OC(COc1ccccc1C(O)CCc1ccccc1)CN1CCN(c2ccc(F)cc2)CC1` (stereo not given), the IC50 amounted to 670 nM.

In the case of `O=C(CCc1cccc2ccccc12)c1ccccc1OCC(O)CN1CCC(O)(c2ccccc2)CC1` (stereo not given), the IC50 stood at 70 nM.

Regarding `O=C(CCc1ccccc1)c1ccc(OCC(O)CN2CCCCC2)cc1` (stereo not given), the IC50 was 1360 nM.

With `COC(CCc1ccccc1)c1ccccc1OCC(O)CNCCC(c1ccccc1)c1ccccc1` (stereo not given), the half-inhibitory concentration (IC50) turned out to be 750 nM.

As to `CC(C)N(CC(O)COc1ccc(C(=O)CCc2ccccc2)cc1)C(C)C` (stereo not given), the IC50 was determined as 920 nM.

In the case of `CCC(=O)c1ccccc1OCC(O)CN1CCCCC1` (stereo not given), the IC50 was 6840 nM.

For the compound `O=C(CCc1ccccc1)c1ccccc1OCC(O)CN1CCN(c2ccccc2)CC1` (stereo not given), the half-inhibitory concentration (IC50) was 210 nM.

Take `O=C(CCc1ccccc1)c1cc(O)ccc1OCC(O)CN1CCN(Cc2ccccc2)CC1` (stereo not given): the concentration for half-maximal inhibition (IC50) turned out to be 530 nM.

For `COC(=O)c1ccc(NCC(O)COc2ccccc2C(=O)CCc2ccccc2)cc1` (stereo not given), the IC50 turned out to be 2530 nM.

Take `COC(CCc1ccccc1)c1ccccc1OCC(O)CN1CCOCC1` (stereo not given): the half-inhibitory concentration (IC50) was 1800 nM.

As to `CC(=O)c1ccc(OCC(O)CN2CCCCC2)cc1` (stereo not given), the half-inhibitory concentration (IC50) is 75900 nM.

Regarding `CCCNCC(O)COc1ccc(OCc2ccccc2)cc1C(=O)CCc1ccccc1` (stereo not given), the half-inhibitory concentration (IC50) was 110 nM.

On to `CC(=O)c1ccccc1OCC(O)CN1CCC(O)(c2ccccc2)CC1` (stereo not given), for which the 50% inhibitory concentration (IC50) was determined as 2830 nM.

As for `O=C(CCc1ccccc1)c1cc(O)ccc1OCC(O)CN1CCCCC1` (stereo not given), the concentration for half-maximal inhibition (IC50) amounted to 2300 nM.

Turning to `O=C(CCc1cccc2ccccc12)c1ccccc1OCC(O)CNCCC(c1ccccc1)c1ccccc1` (stereo not given), the concentration for half-maximal inhibition (IC50) turned out to be 720 nM.

As for `O=C(CCc1ccccc1)c1ccc(OCC(O)CN2CCN(c3ccc(F)cc3)CC2)cc1` (stereo not given), the IC50 came to 2530 nM.

On to `O=C(c1ccccc1)c1ccccc1OCC(O)CN1CCC(O)(c2ccccc2)CC1` (stereo not given), for which the IC50 amounted to 190 nM.

As to `O=C(c1ccccc1)c1ccccc1OCC(O)CN1CCN(c2ccc(F)cc2)CC1` (stereo not given), the half-inhibitory concentration (IC50) amounted to 420 nM.

For `CC(=O)c1cccc(OCC(O)CN2CCN(c3ccc(F)cc3)CC2)c1` (stereo not given), the half-inhibitory concentration (IC50) is 11400 nM.

Regarding `O=C(CCc1ccccc1)c1ccccc1OCC(O)CNc1ccccc1` (stereo not given), the IC50 turned out to be 6470 nM.

Consider `CC(C)N(CC(O)COc1ccc(O)cc1C(=O)CCc1ccccc1)C(C)C` (stereo not given), for which the IC50 came out at 1040 nM.

Regarding `CC(=O)c1cccc(OCC(O)CN2CCOCC2)c1` (stereo not given), the IC50 was found to be 118000 nM.

Consider `O=C(CCc1ccccc1)c1ccccc1OCC(O)CN1CCN(c2ccc(F)cc2)CC1` (stereo not given), for which the IC50 was 140 nM.

Take `O=C(CCc1ccccc1)c1ccccc1OCC(O)CN1CCCCC1` (stereo not given): the IC50 stood at 680 nM.

Turning to `O=C(CCc1cccc2ccccc12)c1ccccc1OCC(O)CN1CCCCC1` (stereo not given), the half-maximal inhibitory concentration (IC50) amounted to 170 nM.

As for `O=C(CCc1ccccc1)c1ccccc1OCC(O)CNCCC(c1ccccc1)c1ccccc1` (stereo not given), the concentration for half-maximal inhibition (IC50) was 720 nM.

With `O=C(CCc1ccccc1)c1cc(OCc2ccccc2)ccc1OCC(O)CN1CCCCC1` (stereo not given), the IC50 came out at 170 nM.

For the compound `O=C(CCc1ccccc1)c1ccccc1OCC(O)CN1CCC(O)(c2ccccc2)CC1` (stereo not given), the half-maximal inhibitory concentration (IC50) amounted to 70 nM.

With `CC(C)N(CC(O)COc1ccc(OCc2ccccc2)cc1C(=O)CCc1ccccc1)C(C)C` (stereo not given), the 50% inhibitory concentration (IC50) is 80 nM.

Take `O=C(CCc1ccccc1)c1ccccc1OCC(O)CN1CCN(Cc2ccccc2)CC1` (stereo not given): the half-inhibitory concentration (IC50) was determined as 380 nM.

On to `CC(C)N(CC(O)COc1ccccc1C(O)CCc1ccccc1)C(C)C` (stereo not given), for which the IC50 was determined as 1740 nM.

Take `CC(=O)c1cccc(OCC(O)CN2CCCCC2)c1` (stereo not given): the IC50 is 9070 nM.

Regarding `CC(C)N(CC(O)COc1ccccc1C(=O)CCc1cccc2ccccc12)C(C)C` (stereo not given), the IC50 turned out to be 540 nM.

Take `COc1ccccc1N1CCN(CC(O)c2oc3ccccc3c2CCc2ccccc2)CC1` (stereo not given): the 50% inhibitory concentration (IC50) was determined as 880 nM.

As to `COc1ccccc1N1CCN(CC(O)COc2ccccc2C(=O)CCc2ccccc2)CC1` (stereo not given), the IC50 came to 110 nM.

With `OC(COc1ccccc1C(O)CCc1ccccc1)CN1CCCCC1` (stereo not given), the IC50 was determined as 1340 nM.

Regarding `OC(COc1ccccc1C(O)CCc1ccccc1)CN1CCOCC1` (stereo not given), the IC50 is 9540 nM.

Regarding `O=C(CCc1ccccc1)c1ccccc1OCC(O)CNC(c1ccccc1)c1ccccc1` (stereo not given), the 50% inhibitory concentration (IC50) stood at 1020 nM.

With `CCCN(C)CC(O)COc1ccccc1C(=O)CCc1ccccc1` (stereo not given), the half-maximal inhibitory concentration (IC50) was found to be 490 nM.

With `O=C(CCc1cccc2ccccc12)c1ccccc1OCC(O)CN1CCOCC1` (stereo not given), the IC50 amounted to 680 nM.

As for `CCC(=O)c1ccccc1OCC(O)CN1CCC(O)(c2ccccc2)CC1` (stereo not given), the half-maximal inhibitory concentration (IC50) was 300 nM.

As to `CCN(CC)CC(O)COc1ccccc1C(=O)CCc1ccccc1` (stereo not given), the IC50 came to 910 nM.

In the case of `CCCNCC(O)c1oc2ccccc2c1CCc1ccccc1` (stereo not given), the half-maximal inhibitory concentration (IC50) amounted to 58100 nM.

As for `COc1ccc(N2CCN(CC(O)COc3ccccc3C(=O)CCc3ccccc3)CC2)cc1` (stereo not given), the 50% inhibitory concentration (IC50) turned out to be 180 nM.

Regarding `O=C(CCc1ccccc1)c1ccccc1OCC(O)CN1CCOCC1` (stereo not given), the half-inhibitory concentration (IC50) is 3750 nM.

Take `O=C(CCc1ccccc1)c1ccccc1OCC(O)CN1CCCC1` (stereo not given): the IC50 came out at 1820 nM.

For `Cc1ccccc1N1CCN(CC(O)COc2ccccc2C(=O)CCc2ccccc2)CC1` (stereo not given), the IC50 is 50 nM.

For `CC(C)N(CC(O)COc1ccccc1C(=O)CCc1ccccc1)C(C)C` (stereo not given), the IC50 was determined as 310 nM.

As for `CCCNCC(O)COc1ccc(O)cc1C(=O)CCc1ccccc1` (stereo not given) [5-HYDROXY PROPAFENONE], the half-maximal inhibitory concentration (IC50) turned out to be 3020 nM.

Take `CCCNCC(O)COc1ccccc1C(=O)CCc1ccccc1` (stereo not given) [PROPAFENONE]: the half-inhibitory concentration (IC50) came out at 1080 nM.
